Reference: patent US5726195A, “Aminoacyl adenylate mimics as novel antimicrobial and antiparasitic agents” (Cubist Pharmaceuticals, Inc., priority 1996, dated 1998)
In brackets after ≈: the same amount, converted by molar mass.

Assays:
S. aureus ATCC 6538P = assay: Whole cell antimicrobial screen, MIC; format: cell-based; settings: Staphylococcus aureus, ATCC6538P
Protocol: (§1) Compounds were tested for antimicrobial activity against a panel of organisms according to standard procedures described by the National Committee for Clinical Laboratory Standards (NCCLS document M7-A3, Vol. 13, No. 25, 1993/NCCLS document M27-P, Vol. 12, No. 25, 1992). Compounds were dissolved in 100% dimethyl sulfoxide and were diluted to the final reaction concentration (0.1 μg/mL-500 μg/mL) in microbial growth media. In al cases the final concentration of dimethyl sulfoxide incubated with cells is less than or equal to 1%. For minimum inhibitory concentration (MIC) calculations, 2-fold dilutions of compounds were added to wells of a microtiter plate containing 5×10^4 bacteria or fungal cells in a final volume of 100 lambda of an appropriate media (Mueller-Hinton Broth; Haemophilus Test Media; Mueller-Hinton Broth+5% Sheep Blood; or […]). Plates were incubated overnight at an appropriate temperature (30° C.-37° C.) and optical densities (measure of cell growth) were measured using a commercial plate reader. The MIC value is defined as the lowest compound concentration inhibiting growth of the test organism.

C. albicans ATCC 10231 = assay: Whole cell antimicrobial screen, MIC; format: cell-based; settings: Candida albicans, ATCC10231
Protocol: as §1

[1] = system: S. epidermidis ATCC 33501; assay: Whole cell antimicrobial screen, MIC; format: cell-based; settings: Staphylococcus epidermidis, ATCC33501
Protocol: as §1

E. faecium ATCC 6569 = assay: Whole cell antimicrobial screen, MIC; format: cell-based; settings: Enterococcus faecium, ATCC6569
Protocol: as §1

S. pyogenes ATCC 8668 = assay: Whole cell antimicrobial screen, MIC; format: cell-based; settings: Streptococcus pyogenes, ATCC8668
Protocol: as §1

E. faecalis ATCC 33011 = assay: Whole cell antimicrobial screen, MIC; format: cell-based; settings: Enterococcus faecalis, ATCC33011
Protocol: as §1

[2] = system: S. saprophyticus ATCC 35552; assay: Whole cell antimicrobial screen, MIC; format: cell-based; settings: Staphylococcus saprophyticus, ATCC35552
Protocol: as §1

S. aureus ATCC 14154 = assay: Whole cell antimicrobial screen, MIC; format: cell-based; settings: Staphylococcus aureus, ATCC14154
Protocol: as §1

[3] = target: E. Coli. IleRS (isoleucyl-tRNA synthetase) (Escherichia coli, UniProt P00956); assay: Inhibition of isoleucyl-tRNA synthetase (aminoacylation of tRNA with [3H]isoleucine); format: biochemical; settings: E. coli enzyme; irreversible inhibitors: values are 50% of the active enzyme concentration; read-out: IC50 E.Coli. IleRS
Protocol: The extent of aminoacylation of tRNA with isoleucine catalyzed by isoleucyl-tRNA synthetase enzyme was measured by monitoring the incorporation of [3H] isoleucine into trichloroacetic acid-precipitable tRNA in the presence of a compound of Formula I, as compared with activity in the absence of inhibitor. The isoleucyl-tRNA synthetase enzymes are well known in the prior art and can be obtained and purified by known methods (for example see: D. Kern et at., Biochimie, 61, 1257-1272 (1979) and J. Gilbart et al., Antimicrobial Agents and Chemotherapy, 37 (1), 32-38 (1993)).
Isoleucyl-tRNA synthetase enzyme (0.08-2.0 nM, preferably, 0.4 nM) was first pre-incubated at 25° C. with 0.05 mg/ml bovine serum albumin, 10 mM DTT, 2.5% dimethyl sulfoxide, with or without a compound of Formula I, for 20 minutes. At this point a substrate solution (a solution containing the following: ATP, [^3 H]isoleucine, tRNA, HEPES, magnesium chloride, and potassium chloride) was added to give a final concentration of 0.0286 mg/ml bovine serum albumin, 5.7 mM DTT, 4 mM ATP, 5-20 μM [^3 H] isoleucine (1-15 Ci/mmol), 90 μM crude tRNA or 2 μM isoleucine specific tRNA, 1.4% dimethyl sulfoxide, 30 mM HEPES (pH 7.5), 10 mM magnesium chloride, and 50 mM potassium chloride and incubated at 25° C. Aliquots were removed at selected times (e.g. 5, 10, 20 minutes) and applied to 3MM filter paper discs (Whatman) and then dropped into 5% (wt/vol) trichloroacetic acid for >5 minutes. Filters were washed for three 10-minute periods in 5% trichloroacetic acid, rinsed in 95% ethanol and diethyl ether, and radioactivity was measured with Betafluor™ (National Diagnostics) by liquid scintillation counting.
Inhibitor activity is reported in Table II as an IC50 value (inhibitor concentration causing 50% inhibition of enzyme activity) per a known amount of active enzyme. In the case of irreversible inhibitors (1:1 stoichiometry) these values are 50% of the active enzyme concentration. The IC50 (in nM, E. coli) values of representative compounds of the present invention are listed in the second column of Table II.

[4] = system: Streptococcus pyogenes (ATCC 8668); assay: Mouse protection test against wild type Streptococcus pyogenes; format: in vivo, Streptococcus pyogenes; female CD-1 mice; settings: 10 mg/kg sc (positive control), repeated at 4 hours, 7 days
From the text: (§2) The mouse protection test is an industry standard for measuring the efficacy of a test compound in vivo [for examples of this model see J. J. Clement, et al., Antimicrobial Agents and Chemotherapy, 38 (5), 1071-1078, (1994)]. As exemplified below, this test was used to show the in vivo efficacy of the compounds of the present invention against bacteria.
The in vivo antibacterial activity of compound X was established by infecting female CD-1 mice (Charles River Lab, Massachusettes) weighing 20-24 g intraperitoneally with Streptococcus pyogenes inoculum. The inoculum was prepared from Streptococcus pyogenes (ATCC 8668) which was cultured in brain heart infusion broth (Baltimore Biological Laboratories,Maryland) at 37° C. for 18 hr, and then 0.1 ml of the overnight culture was diluted with the medium to 5.0 ml for reading its OD at 600 nm (0.017). The turbidity of a 0.5 McFarland standard is equivalent to OD600 0.1, or 10^8 cfu/ml. Then, 8×10^5 cfu of the bacteria (940 μl of 1:1000 overnight culture) was added to 20 ml of phosphate buffered saline (Sigma P-0261 ) containing 5% hog gastric mucin (Sigma M-2378). All animals were injected with 0.5 ml of the inoculum, equivalent to 2×10^4 cfu/mouse which is the dose causing ~100% death of the animals without treatment.
Compound X (50 mg) was dissolved in 5.0 ml of 0.05M Tris.HCl (pH 8.8) to give a solution of 10 mg/ml. This solution was serially diluted with 0.05 M Tris.HCl by 5-fold (1.0 ml to 5.0 ml) to give 2, 0.4 and 0.08 mg/ml solutions. The known antibiotic erythromycin (Sigma E-6376, in phosphate buffered saline, 1 mg/ml, pH 7.0) was used as a positive control. All the solutions were filtered with 0.2 μm Nalgene syringe filter. Immediately after the bacterial inoculation, group 1 animals were subcutaneously (sc) injected with 0.05M Tris.HCl (no antibiotic) and groups 2 to 5 were given compound X sc at 0.8, 4, 20, and 100 mg/kg, respectively. Group 6 animals received erythromycin sc at 10 mg/kg. These injections were repeated once at 4 hours after the inoculation for the respective groups. The injection volume at each time was 10 ml per kilogram of body weight. The 50% protective dose (PD50) is calculated on the basis of the number of mice surviving 7 days after inoculation.

K. pneumonia ATCC 4352 = assay: Whole cell antimicrobial screen, MIC; format: cell-based; settings: Klebsiella pneumoniae, ATCC4352
Protocol: as §1

B. subtilis ATCC 6633 = assay: Whole cell antimicrobial screen, MIC; format: cell-based; settings: Bacillus subtilis, ATCC6633
Protocol: as §1

[5] = system: multidrug resistant Streptococcus pyogenes (#OTTO 209); assay: Mouse protection test against multidrug resistant Streptococcus pyogenes; format: in vivo, Streptococcus pyogenes; female CD-1 mice; settings: 10 mg/kg sc (positive control), repeated at 4 hours, 7 days
From the text: as §2
The in vivo activity of compound X against multidrug resistant bacteria was established by infecting female CD-1 mice (Charles River Lab, Massachusettes) weighing 20-24 g intraperitoneally with multidrug resistant Streptococcus pyogenes inoculum. The inoculum was prepared from multidrug resistant Streptococcus pyogenes (resistant to erythromycin, tetracycline, and chloramphenicol, #OTTO 209 obtained from Dr. Pentti Huovinen, National Public Health Institute, Finland) which was cultured in brain heart infusion broth (Baltimore Biological Laboratories, Maryland) at 37° C. for 2 hr, and then 0.1 ml of the culture was diluted with the medium to 1.0 ml for reading its OD at 600 nm (0.12). The turbidity of a 0.5 McFarland standard is equivalent to OD600 0.1, or 10^8 cfu/ml. Then, 4×10^8 cfu of the bacteria (333 μl was added to 20 ml of phosphate buffered saline (Sigma P-0261 ) containing 10 % hog gastric mucin (Sigma M-2378). All animals were injected with 0.5 ml of the inoculum, equivalent to 10^7 cfu/mouse which is the dose causing ~100% death of the animals without treatment.
Compound X (60 mg) was dissolved in 6.0 ml of 0.05M Tris.HCl (pH 8.8) to give a solution of 10 mg/ml. This solution was serially diluted two times with 0.05M Tris.HCl by 5-fold (1.0 ml to 5.0 ml) to give 2 and 0.4 mg/ml solutions. The known antibiotic vancomycin HCl (Sigma V-2002, in normal saline, 1 mg/ml, pH 6.0-7.0) was used as a positive control. All the solutions were filtered with 0.2 μm Nalgene syringe filter. Immediately after the bacterial inoculation, group 1 animals were subcutaneously (sc) injected with 0.05M Tris.HCl (no antibiotic) and groups 2 to 4 were given compound X sc at 4, 20 and 100 mg/kg, respectively. Group 5 animals received vancomycin sc at 10 mg/kg. These injections were repeated once at 4 hours after the inoculation for the respective groups. The injection volume at each time was 10 ml per kilogram of body weight. The 50% protective dose (PD50) is calculated on the basis of the number of mice surviving 7 days after inoculation.

Sequence of E. Coli. IleRS (isoleucyl-tRNA synthetase) (P00956 whole entry): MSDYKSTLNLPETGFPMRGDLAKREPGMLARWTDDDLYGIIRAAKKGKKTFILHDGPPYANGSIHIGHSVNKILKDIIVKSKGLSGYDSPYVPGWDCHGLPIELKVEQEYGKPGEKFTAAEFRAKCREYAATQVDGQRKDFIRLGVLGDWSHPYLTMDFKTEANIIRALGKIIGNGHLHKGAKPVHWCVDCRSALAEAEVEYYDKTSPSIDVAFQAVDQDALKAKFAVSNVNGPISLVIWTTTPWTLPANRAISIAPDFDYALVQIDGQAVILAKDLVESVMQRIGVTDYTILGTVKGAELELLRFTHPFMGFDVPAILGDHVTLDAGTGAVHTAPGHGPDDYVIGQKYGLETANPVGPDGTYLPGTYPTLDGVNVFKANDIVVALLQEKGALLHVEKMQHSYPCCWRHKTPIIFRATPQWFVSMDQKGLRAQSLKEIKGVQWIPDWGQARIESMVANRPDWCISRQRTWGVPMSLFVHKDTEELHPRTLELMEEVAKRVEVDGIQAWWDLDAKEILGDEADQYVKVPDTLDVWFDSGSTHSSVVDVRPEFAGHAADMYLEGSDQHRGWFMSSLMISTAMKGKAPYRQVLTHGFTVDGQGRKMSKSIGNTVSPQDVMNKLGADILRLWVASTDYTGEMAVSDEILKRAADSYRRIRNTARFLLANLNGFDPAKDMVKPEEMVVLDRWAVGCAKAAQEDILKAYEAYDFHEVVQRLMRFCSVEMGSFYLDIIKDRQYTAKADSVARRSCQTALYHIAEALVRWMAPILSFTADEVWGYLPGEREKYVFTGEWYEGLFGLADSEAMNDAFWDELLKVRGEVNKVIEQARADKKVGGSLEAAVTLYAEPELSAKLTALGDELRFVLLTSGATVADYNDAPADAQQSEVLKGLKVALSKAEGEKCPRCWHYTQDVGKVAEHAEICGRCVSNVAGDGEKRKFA

| Structure (SMILES) | MIC (S. aureus ATCC 6538P) [µg/mL] | MIC (C. albicans ATCC 10231) [µg/mL] | MIC [1] [µg/mL] | MIC (E. faecium ATCC 6569) [µg/mL] | MIC (S. pyogenes ATCC 8668) [µg/mL] | MIC (E. faecalis ATCC 33011) [µg/mL] | MIC [2] [µg/mL] | MIC (S. aureus ATCC 14154) [µg/mL] | IC50 [3] [nM] | Protective % [4] [%] | Number of Alive ([4]; of 5 mice) | MIC (K. pneumonia ATCC 4352) [µg/mL] | MIC (B. subtilis ATCC 6633) [µg/mL] | Protective % [5] [%] | Number of Alive ([5]; of 5 mice) |
| --- | --- | --- | --- | --- | --- | --- | --- | --- | --- | --- | --- | --- | --- | --- | --- |
| CC[C@H](C)[C@H](N)C(=O)NS(=O)(=O)OC[C@H]1O[C@@H](CCn2nnc(-c3ccc(Sc4ccccc4)cc3)n2)[C@H](O)[C@@H]1O [IX] | 25 (≈ 41.2 µM) | > 500 | 5 (≈ 8.24 µM) | 10 (≈ 16.5 µM) | 0.5 (≈ 0.824 µM) | 500 (≈ 824 µM) | 25 (≈ 41.2 µM) | 50 (≈ 82.4 µM) | 5 | – | – | – | – | – | – |
| CC[C@H]1OC(=O)[C@H](C)[C@@H](O[C@H]2C[C@@](C)(OC)[C@@H](O)[C@H](C)O2)[C@H](C)[C@@H](O[C@@H]2O[C@H](C)C[C@H](N(C)C)[C@H]2O)[C@](C)(O)C[C@@H](C)C(=O)[C@H](C)[C@@H](O)[C@]1(C)O [Erythromycin, erythromycin, reference compound] | – | – | – | – | – | – | – | – | – | 100 | 5 | – | – | – | – |
| CC[C@H](C)[C@H](N)C(=O)NS(=O)(=O)OC[C@H]1O[C@@H](CCn2nnc(-c3ccc(-c4ccc(F)c(F)c4)cc3)n2)[C@H](O)[C@@H]1O [XXIII] | 50 (≈ 81.9 µM) | 10 (≈ 16.4 µM) | 10 (≈ 16.4 µM) | 100 (≈ 164 µM) | – | – | 25 (≈ 40.9 µM) | 100 (≈ 164 µM) | 2.9 | – | – | 100 (≈ 164 µM) | 50 (≈ 81.9 µM) | – | – |
| CC[C@H](C)[C@H](N)C(=O)NS(=O)(=O)OC[C@H]1O[C@@H](CCn2nnc(-c3ccc(Oc4ccc([N+](=O)[O-])s4)cc3)n2)[C@H](O)[C@@H]1O [XXXI] | 5 (≈ 7.79 µM) | – | 5 (≈ 7.79 µM) | 100 (≈ 156 µM) | 4 (≈ 6.23 µM) | > 500 | 2 (≈ 3.12 µM) | 10 (≈ 15.6 µM) | 1.3 | – | – | – | – | – | – |
| CC[C@H](C)[C@H](N)C(=O)NS(=O)(=O)OC[C@H]1O[C@@H](CCn2nnc(-c3ccc(-c4ccccn4)nc3)n2)[C@H](O)[C@@H]1O [XXV] | 500 (≈ 867 µM) | – | 25 (≈ 43.4 µM) | > 500 | – | > 500 | 50 (≈ 86.7 µM) | 100 (≈ 173 µM) | 0.5 | – | – | > 500 | > 500 | – | – |
| CC[C@H](C)[C@H](N)C(=O)NS(=O)(=O)OC[C@H]1O[C@@H](CCn2nnc(Cc3ccc(Oc4ccccc4)cc3)n2)[C@H](O)[C@@H]1O [XXX] | 100 (≈ 165 µM) | > 200 | 25 (≈ 41.3 µM) | 100 (≈ 165 µM) | – | 500 (≈ 827 µM) | 100 (≈ 165 µM) | 500 (≈ 827 µM) | 2.7 | – | – | – | – | – | – |
| CN[C@H](CC(C)C)C(=O)N[C@H]1C(=O)N[C@@H](CC(N)=O)C(=O)N[C@H]2C(=O)N[C@H]3C(=O)N[C@H](C(=O)N[C@H](C(=O)O)c4cc(O)cc(O)c4-c4cc3ccc4O)[C@H](O)c3ccc(c(Cl)c3)Oc3cc2cc(c3O[C@@H]2O[C@H](CO)[C@@H](O)[C@H](O)[C@H]2O[C@H]2C[C@](C)(N)[C@H](O)[C@H](C)O2)Oc2ccc(cc2Cl)[C@H]1O [Vancomycin, vancomycin, reference compound] | – | – | – | – | – | – | – | – | – | – | – | – | – | 100 | 5 |
